Laboratory results: patent US10906900B2, “Compounds for using in imaging and particularly for the diagnosis of neurodegenerative diseases” (CENTRE NATIONAL DE LA RECHERCHE SCIENTIFIQUE, priority 2016, dated 2021)

Legend:
Aβ1-42 fibers [1] = biological target: Aβ1-42 fibers (Homo sapiens, UniProt P05067); test: In vitro direct determination of Kd and Bmax by fluorescence, Aβ1-42 fibers; type: binding
Procedure: (§1) To obtain fiber assembly, α-syn is incubated in Tris-HCl 50 mM pH7.5, KCl 150 mM at 37° C. under continuous agitation during 4 days. The lyophilized Aβ1-42 was dissolved in 1,1,1,3,3,3-Hexafluoro-2-propanol (HFIP) at 0.2 mg/mL and incubated for 24 h at 37° C. to obtain the complete solubilization. The HFIP is evaporated under nitrogen stream to obtain a dry product. To start the fiber assembly, the dry peptide is resuspended in PBS pH7.4, 10% (v/v) DMSO and incubated at 37° C. for 3 days without agitation.
(§2) Fresh solutions of each test compound (2.5 mM in DMSO) are diluted in PBS pH=7.4 at concentrations between 0.5 nM and 5 μM in the presence or absence of α-syn (200 nM), Aβ1-42 (500 nM) or Tau (200 nM) fibers in a final 2 mL volume. After 1 h of incubation at RT, the binding of each compound to α-syn, A131-42 or Tau fibers is measured by fluorescence using the spectral changes of the compounds during their binding to the fibers, using the appropriate excitation/emission wavelengths (those giving the highest fluorescence variation during binding to the fibres). For each concentration of compound added to the fibres, the bound and free fractions are measured by fluorescence according to the following equation: Fm=FBB+FF×(T−B)
(§3) The value of FF is determined by measuring the fluorescence of known concentrations of compounds in the absence of fibres. The FB value is determined by measuring the maximum fluorescence of known concentrations of compounds in the presence of saturated concentrations of α-syn, Aβ1-42, or Tau fibers.
(§4) The values of B thus determined versus the concentrations of the free fractions (T-B) are analyzed according to the Michaelis-Menten equation. The affinity (Kd) and density of binding sites within the fibers of α-syn, Aβ1-42 or Tau (Bmax) are determined by Scatchard analysis, which also makes it possible to highlight multiple site classes.

Aβ1-42 fibers [2] = test: as above; type: binding; conditions: selective = good affinity and at least two times greater than for at least one of the two other proteins
Procedure: as §1, §2, §3, §4

α-syn fibers = α-syn fibers (Homo sapiens (Human), UniProt P37840); test: In vitro direct determination of Kd and Bmax by fluorescence, α-syn fibers; type: binding
Procedure: as §1, §2, §3, §4

Tau fibers = Tau fibers (Homo sapiens (Human), UniProt P10636); test: In vitro direct determination of Kd and Bmax by fluorescence, Tau fibers; type: binding
Tau fibers, sequence (P10636 other isoform, or with tags, fused parts or gaps): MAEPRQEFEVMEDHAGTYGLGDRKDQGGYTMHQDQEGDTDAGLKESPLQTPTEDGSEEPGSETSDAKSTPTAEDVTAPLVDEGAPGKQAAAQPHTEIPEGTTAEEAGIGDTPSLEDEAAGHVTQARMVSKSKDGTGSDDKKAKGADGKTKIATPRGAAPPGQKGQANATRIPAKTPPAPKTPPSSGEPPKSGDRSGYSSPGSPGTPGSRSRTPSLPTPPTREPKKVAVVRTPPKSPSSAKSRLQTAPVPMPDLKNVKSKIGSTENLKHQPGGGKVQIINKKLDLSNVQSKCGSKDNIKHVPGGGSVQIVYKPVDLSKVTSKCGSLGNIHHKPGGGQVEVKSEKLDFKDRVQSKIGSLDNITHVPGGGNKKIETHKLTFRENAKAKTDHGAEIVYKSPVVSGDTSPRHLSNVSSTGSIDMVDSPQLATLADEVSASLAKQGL
Procedure: Human Tau protein (isoform h2N4RTau) is expressed in the vector pET11d in E. Coli (strain BL21 (DE3), (Stratagene, La Jolla, Calif.)) and purified according to the described method (Barghorn S, Biernat J, Mandelkow E. (2005) Methods Mol Biol. 299:35-51). The Tau purified concentration is determined by measuring the absorbance at 280 nm using a molar extinction coefficient of 7450 M^−1 cm^−1.
Tau protein in PBS buffer containing 1 mM DTT is assembled into fiber in the presence of one twelfth of a molar equivalent of heparin at 37° C. under stirring.
as §2
Where Fm is the fluorescence measured in the presence of fibers at a concentration T of the compound added to the fibers, FB is the specific fluorescence of the bound compound, FF is the specific fluorescence of the free compound, and B is the concentration of the fiber bound compound at a given concentration T (Bell, J. E., “Fluorescence; Solution Studies”, Spectrometry in Biochemistry, vol. I, Bell, J. E., ed., CRC Press, Inc., Boca Raton, Fla., pp. 155-194 (1981)).
as §3
Thus, at each point, the concentration of bound compound B is determined according to the following equation: B=(Fm−FF×T)/(FB−FF)
as §4

[3] = In vivo evaluation of fluorine-18-labelled tracer: PET/CT and tissue radioactivity (BBB crossing, bone fixation); conditions: healthy adult male Wistar rat, intravenous injection of 18F tracer
Procedure: The objective is to determine whether the tracer has the blood-brain barrier (BBB) crossing properties in sufficient quantities to be used as a PET imaging tracer. In addition, bone fixation can be qualified, which reflects the degree of defluorination of the tracer in vivo.
Animal Model: Adult male rats of Wistar strain.
In vivo study: the healthy animal receives an intravenous injection of the tracer test (molecule 28).
From the moment of injection, imaging is carried out using a dedicated system (PET/CT) which records the intracerebral accumulation of radioactivity (Sérrière et al. Nucl. Med. Biol. 2014, 41:103-13; Sérrière et al. Neurobiol. Aging 2015, 36:1639-52). At the end of the imaging, the animal is euthanized; the brain and a bone fragment (femur) are collected, weighed and their radioactivity is measured. This method allows to precisely quantify the accumulation of the tracer in the tissues. The results are expressed as a percentage of the injected tracer dose/g of tissue (% DI/g).

[4] = density of binding sites, direct fluorescence, Scatchard analysis

Aβ1-42 fibers (Homo sapiens, UniProt P05067), sequence (P05067 672-713 limits assumed): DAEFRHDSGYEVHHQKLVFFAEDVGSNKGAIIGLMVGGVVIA

## CN(CCF)c1ccc(C#Cc2cc3cccnc3[nH]2)cc1 [Compound 28, 4-((1H-Pyrrolo[2,3-b]pyridin-2-yl)ethynyl)-N-(2-fluoroethyl)-N-methylaniline]
Aβ1-42 fibers [1]; [4]
  Aβ Bmax1: 1.8 ± 0.6 nmol/μmol prot
Aβ1-42 fibers [1]; direct fluorescence, Scatchard analysis, Aβ1-42 fibers 500 nM, read-out: Aβ Kd1
  Kd: 1.2 ± 1 nM
Aβ1-42 fibers [1]; in brackets in the Bmax cell
  Aβ Bmax1 (number of sites/monomer): 1/600
Aβ1-42 fibers [2]
  Aβ selectivity according to analysis of Kd (Tables 6 and 7): selective
α-syn fibers; [4]
  αsyn Bmax1: 141.5 ± 45 nmol/μmol prot
α-syn fibers; direct fluorescence, Scatchard analysis, α-syn fibers 200 nM, read-out: αsyn Kd1
  Kd: 2.4 ± 1 nM
α-syn fibers; in brackets in the Bmax cell
  αsyn Bmax1 (number of sites/monomer): 1/7
Tau fibers; [4]
  Tau Bmax1: 46.5 ± 5 nmol/μmol prot
Tau fibers; direct fluorescence, Scatchard analysis, Tau fibers 200 nM, read-out: Tau Kd1
  Kd: 0.97 ± 0.4 nM
Tau fibers; in brackets in the Bmax cell
  Tau Bmax1 (number of sites/monomer): 1/20
Tau fibers; selective = good affinity and at least two times greater than for at least one of the two other proteins
  Tau selectivity according to analysis of Kd (Tables 6 and 7): selective
[3]; brain collected at end of imaging
  Passing of the BBB: brain accumulation, percentage of injected tracer dose/g of tissue: ≈ 0.4 % DI/g
[3]; femur at end of imaging, reflects defluorination
  binding to bone: femur accumulation, percentage of injected tracer dose/g of tissue: 0.3 % DI/g
